These results are taken from the NIST ThermoML archive (doi:10.1016/j.fluid.2008.06.003).

Data set [1] in a line: refractive index (Na D-line) (dimensionless). The settings on record: 298.15 K; 101.33 kPa; Liquid; Standard Abbe refractometry.
For data set [2] the following is noted: 298.15 K, 101.33 kPa, Liquid.

Numbers after ± are expanded uncertainties.

For orientation: refractive index means the speed of light in vacuum divided by its phase velocity in the sample. In general, mass density refers to the mass of a sample divided by its volume. In the case of `CCCCCCn1cc[n+](C)c1.F[P-](F)(F)(F)(F)F` [1-hexyl-3-methylimidazolium hexafluorophosphate], the refractive index in data set [1] stood at 1.41787 ± 0.001. Also, the mass density in data set [2] (Vibrating tube method) is 1293.7 ± 9.1 kg/m3.
The corresponding values for `CCCCCCCC[n+]1ccn(C)c1.F[P-](F)(F)(F)(F)F` [1-octyl-3-methylimidazolium hexafluorophosphate] are 1.42302 ± 0.001 and 1235.7 ± 8.3 kg/m3.
For `CCO` [ethanol], the refractive index in data set [1] is 1.35929 ± 0.00031. For the same compound, the mass density in data set [2] was found to be 785.1 ± 0.5 kg/m3.
As to `CCCCCCC` [heptane], the refractive index in data set [1] came to 1.38517 ± 0.00037. The mass density in data set [2] turned out to be 679.5 ± 1 kg/m3.
The corresponding values for `CCCCCC` [hexane] are 1.37217 ± 0.00037 and 654.9 ± 1.1 kg/m3.
